We go through 23 compounds from patent publication US20090118332A1, “Therapeutic Agents - 551” (AstraZeneca AB, priority 2006, published 2009).

The target in the first assay is T1, human Fatty Acid Synthase (Homo sapiens, UniProt P49327).
T1 construct: made in house
T1 sequence (P49327 whole entry): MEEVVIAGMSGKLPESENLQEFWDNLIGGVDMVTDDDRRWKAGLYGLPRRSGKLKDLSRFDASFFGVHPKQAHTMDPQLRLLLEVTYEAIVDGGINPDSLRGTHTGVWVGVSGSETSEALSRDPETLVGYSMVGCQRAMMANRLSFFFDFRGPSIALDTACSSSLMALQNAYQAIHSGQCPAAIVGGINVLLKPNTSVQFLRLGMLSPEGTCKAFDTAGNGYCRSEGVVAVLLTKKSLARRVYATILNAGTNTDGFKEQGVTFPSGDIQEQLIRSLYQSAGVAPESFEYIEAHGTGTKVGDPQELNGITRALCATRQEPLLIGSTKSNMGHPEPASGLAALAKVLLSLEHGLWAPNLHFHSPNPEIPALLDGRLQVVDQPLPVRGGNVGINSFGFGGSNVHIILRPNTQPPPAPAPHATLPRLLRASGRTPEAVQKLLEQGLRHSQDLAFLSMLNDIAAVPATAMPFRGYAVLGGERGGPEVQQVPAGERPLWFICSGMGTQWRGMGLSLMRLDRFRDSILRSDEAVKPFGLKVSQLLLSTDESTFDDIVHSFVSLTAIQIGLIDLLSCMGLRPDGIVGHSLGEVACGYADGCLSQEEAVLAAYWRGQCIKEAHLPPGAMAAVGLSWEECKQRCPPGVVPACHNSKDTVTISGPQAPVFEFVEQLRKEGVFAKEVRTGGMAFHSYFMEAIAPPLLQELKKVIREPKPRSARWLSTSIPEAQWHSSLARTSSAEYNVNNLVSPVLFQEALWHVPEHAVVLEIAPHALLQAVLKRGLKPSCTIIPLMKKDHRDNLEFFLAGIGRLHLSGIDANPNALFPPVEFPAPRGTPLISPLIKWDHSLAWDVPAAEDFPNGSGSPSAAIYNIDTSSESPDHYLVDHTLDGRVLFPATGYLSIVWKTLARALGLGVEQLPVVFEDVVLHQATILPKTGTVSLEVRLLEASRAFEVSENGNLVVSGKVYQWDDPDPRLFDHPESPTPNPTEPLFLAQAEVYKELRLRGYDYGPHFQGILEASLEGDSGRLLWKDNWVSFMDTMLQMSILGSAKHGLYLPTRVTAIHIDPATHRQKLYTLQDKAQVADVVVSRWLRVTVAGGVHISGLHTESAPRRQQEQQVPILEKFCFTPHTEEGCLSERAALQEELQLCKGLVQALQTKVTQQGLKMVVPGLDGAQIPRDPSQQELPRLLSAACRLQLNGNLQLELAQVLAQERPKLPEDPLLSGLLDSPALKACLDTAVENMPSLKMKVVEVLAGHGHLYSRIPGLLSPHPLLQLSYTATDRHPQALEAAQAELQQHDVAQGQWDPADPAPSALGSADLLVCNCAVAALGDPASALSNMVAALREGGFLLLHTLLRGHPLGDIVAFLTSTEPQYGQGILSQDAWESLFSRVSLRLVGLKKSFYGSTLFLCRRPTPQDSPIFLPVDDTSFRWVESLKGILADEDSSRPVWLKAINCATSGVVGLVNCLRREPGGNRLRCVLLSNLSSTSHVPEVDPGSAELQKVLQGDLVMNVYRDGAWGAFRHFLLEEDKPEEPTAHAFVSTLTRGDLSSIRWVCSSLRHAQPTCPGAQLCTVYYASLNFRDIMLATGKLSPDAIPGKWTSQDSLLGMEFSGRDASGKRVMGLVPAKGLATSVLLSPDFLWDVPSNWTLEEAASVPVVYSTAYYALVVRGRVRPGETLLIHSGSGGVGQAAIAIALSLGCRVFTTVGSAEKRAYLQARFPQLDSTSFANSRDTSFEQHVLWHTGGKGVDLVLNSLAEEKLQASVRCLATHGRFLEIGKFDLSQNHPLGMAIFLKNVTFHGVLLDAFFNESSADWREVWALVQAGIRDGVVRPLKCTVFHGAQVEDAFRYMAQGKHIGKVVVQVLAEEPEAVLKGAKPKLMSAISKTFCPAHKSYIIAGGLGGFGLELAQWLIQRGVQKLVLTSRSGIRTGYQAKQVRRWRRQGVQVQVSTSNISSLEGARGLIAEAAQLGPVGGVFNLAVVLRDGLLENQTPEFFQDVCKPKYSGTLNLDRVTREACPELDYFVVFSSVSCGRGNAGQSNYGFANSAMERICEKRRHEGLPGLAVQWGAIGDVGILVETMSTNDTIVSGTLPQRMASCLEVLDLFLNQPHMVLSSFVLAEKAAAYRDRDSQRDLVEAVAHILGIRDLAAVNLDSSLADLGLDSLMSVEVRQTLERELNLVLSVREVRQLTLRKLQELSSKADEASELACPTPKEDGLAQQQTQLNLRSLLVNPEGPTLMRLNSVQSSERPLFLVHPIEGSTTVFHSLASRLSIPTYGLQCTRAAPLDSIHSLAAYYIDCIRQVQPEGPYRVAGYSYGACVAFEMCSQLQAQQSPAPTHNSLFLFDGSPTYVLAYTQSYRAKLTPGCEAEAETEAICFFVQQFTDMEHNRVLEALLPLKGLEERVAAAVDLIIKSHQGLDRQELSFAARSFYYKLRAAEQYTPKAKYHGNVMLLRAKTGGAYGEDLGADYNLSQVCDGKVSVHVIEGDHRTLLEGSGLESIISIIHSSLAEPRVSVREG
Nature of the assay: Human FAS enzyme assay (decrease in NADPH fluorescence). Particulars: % inhibition at a concentration of 100 μmolar. Format: biochemical. The method in brief: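 In-house human FAS was preincubated with compound and NADPH for 15 min at room temperature in 0.1 M Tris pH 7.5 with EDTA, glutathione and BSA. Malonyl CoA and acetyl CoA (500 μM and 150 μM in the added mix) were then added for 60 min. IC50 came from time-zero-subtracted NADPH fluorescence (340/460 nm).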
For `N#Cc1ccc(C2CCN(C(=O)c3ccc(F)c(NC(=O)NCc4ccccc4)c3)CC2)cc1` [Example 8, 3-benzyl-1-[5-[4-(4-cyanophenyl)piperidine-1-carbonyl]-2-fluoro-phenyl]urea], the inhibition (in general, the drop in the measured response relative to a control, in per cent) at 100 µM was 82.6%.
`Cc1ccc(C(=O)N2CCC(c3ccc(C#N)cc3)CC2)cc1NC(=O)NCC(C)(C)C` [Example 71, 1-[5-[4-(4-cyanophenyl)piperidine-1-carbonyl]-2-methyl-phenyl]-3-(2,2-dimethylpropyl)urea]: the inhibition at 100 µM turned out to be 94.2%.
For `Cc1ccc(C(=O)N2CCC(c3ccc(C#N)cc3)CC2)cc1NC(=O)NCc1cccc(N)c1` [Example 85, 3-[(3-aminophenyl)methyl]-1-[5-[4-(4-cyanophenyl)piperidine-1-carbonyl]-2-methyl-phenyl]urea], the inhibition at 100 µM came to 93.6%.
The same measure, in the same setting: with `Cc1ccc(C(=O)N2CCC(c3ccc(C#N)cc3)CC2)cc1NC(=O)NC1(C)CC1` [Example 389, 1-[5-[4-(4-cyanophenyl)piperidine-1-carbonyl]-2-methylphenyl]-3-(1-methylcyclopropyl)-urea] the figure was 78.6%.
Still for that read-out and setting: with `COCCNC(=O)CCNC(=O)Nc1cc(C(=O)N2CCC(c3ccc(C#N)cc3)CC2)ccc1C` [Example 128, 3-[[5-[4-(4-cyanophenyl)piperidine-1-carbonyl]-2-methyl-phenyl]carbamoylamino]-N-(2-methoxyethyl)propanamide] the figure was 87.5%; with `Cc1ccc(C(=O)N2CCC(c3ccc(C#N)cc3)CC2)cc1NC(=O)N[C@@H]1CCCC[C@H]1NS(=O)(=O)N(C)C` (relative stereo) [Example 319, 1-[5-[4-(4-cyanophenyl)piperidine-1-carbonyl]-2-methyl-phenyl]-3-[(trans)-2-(dimethylsulfamoylamino)cyclohexyl]urea], 84.3%.
`Cc1ccc(C(=O)N2CCC(c3ccc(C#N)cc3)CC2)cc1NC(=O)NCC1CCS(=O)(=O)C1` (centres unmarked) [Example 80, 1-[5-[4-(4-cyanophenyl)piperidine-1-carbonyl]-2-methyl-phenyl]-3-[(1,1-dioxothiolan-3-yl)methyl]urea]: the inhibition at 100 µM is 96.1%.
Same read-out and setting: with `Cc1ccc(C(=O)N2CCC(c3ccc(C#N)cc3)CC2)cc1NC(=O)NC1CCCN(C)C1` (racemic) [Example 255, (RS)-1-[5-[4-(4-cyanophenyl)piperidine-1-carbonyl]-2-methyl-phenyl]-3-(1-methyl-3-piperidyl)urea] the figure was 102%.
Still for that read-out and setting: with `Cc1ccc(C(=O)N2CCC(c3ccc(C(F)(F)F)cc3)CC2)cc1NC(=O)NCCNS(=O)(=O)N(C)C` [Example 340, 3-[2-(dimethylsulfamoylamino)ethyl]-1-[2-methyl-5-[4-[4-(trifluoromethyl)phenyl]piperidine-1-carbonyl]phenyl]urea] the figure was 96%; with `Cc1ccc(C(=O)N2CCC(c3ccc(C#N)cc3)CC2)cc1NC(=O)N1CCC1` [Example 346, N-[5-[4-(4-cyanophenyl)piperidine-1-carbonyl]-2-methyl-phenyl]azetidine-1-carboxamide], 75.5%; with `CCOC(=O)N1CCC(NC(=O)Nc2cc(C(=O)N3CCC(c4ccc(C#N)cc4)CC3)ccc2C)CC1` [Example 132, ethyl 4-[[5-[4-(4-cyanophenyl)piperidine-1-carbonyl]-2-methyl-phenyl]carbamoylamino]piperidine-1-carboxylate], 89.5%.
`Cc1ccc(C(=O)N2CCC(c3ccc(C#N)cc3)CC2)cc1NC(=O)NCCCOC(C)C` [Example 153, 1-[5-[4-(4-cyanophenyl)piperidine-1-carbonyl]-2-methyl-phenyl]-3-(3-propan-2-yloxypropyl)urea]: the inhibition at 100 µM is 88.2%.
With `CCNC(=O)Nc1cc(C(=O)N2CCC(c3ccc(C#N)cc3)CC2)c(C)cc1C` [Example 410, 3-[5-[4-(4-cyanophenyl)piperidine-1-carbonyl]-2,4-dimethylphenyl]-1-ethylurea], the inhibition at 100 µM stood at 93.7%.
On the same count and under the same terms, with `Cc1ccc(C(=O)N2CCC(c3ccc(C#N)cc3)CC2)cc1NC(=O)NCCN1CCC(F)(F)C1` [Example 254, 1-[5-[4-(4-cyanophenyl)piperidine-1-carbonyl]-2-methyl-phenyl]-3-[2-(3,3-difluoropyrrolidin-1-yl)ethyl]urea] the figure was 104%.
Still for that read-out and setting: with `CC(=O)N(C)CCNC(=O)Nc1cc(C(=O)N2CCC(c3ccc(C#N)cc3)CC2)ccc1C` [Example 120, N-[2-[[5-[4-(4-cyanophenyl)piperidine-1-carbonyl]-2-methyl-phenyl]carbamoylamino]ethyl]-N-methyl-acetamide] the figure was 68.3%; with `COc1ccc(NCCNC(=O)Nc2cc(C(=O)N3CCC(c4ccc(C#N)cc4)CC3)ccc2C)cc1` [Example 101, 1-[5-[4-(4-cyanophenyl)piperidine-1-carbonyl]-2-methyl-phenyl]-3-[2-[(4-methoxyphenyl)amino]ethyl]urea], 90.7%; with `Cc1ccc(C(=O)N2CCC(c3ccc(C#N)cc3)CC2)cc1NC(=O)NCC1CCCCO1` (centres unmarked) [Example 166, 1-[5-[4-(4-cyanophenyl)piperidine-1-carbonyl]-2-methyl-phenyl]-3-(oxan-2-ylmethyl)urea], 94.7%.
On the same count and under the same terms, with `Cc1ccc(C(=O)N2CCC(c3ccc(C#N)cc3)CC2)cc1NC(=O)NC1COC1` [Example 299, 1-[5-[4-(4-cyanophenyl)piperidine-1-carbonyl]-2-methyl-phenyl]-3-(oxetan-3-yl)urea] the figure was 95.1%.
Take `Cc1ccc(C(=O)N2CCC(c3ccc(C#N)cc3)CC2)cc1NC(=O)NCCN(C)S(C)(=O)=O` [Example 121, 1-[5-[4-(4-cyanophenyl)piperidine-1-carbonyl]-2-methyl-phenyl]-3-[2-(methyl-methylsulfonyl-amino)ethyl]urea]: the inhibition at 100 µM is 86%.
Same read-out and setting: next, `Cc1ccc(C(=O)N2CCC(c3ccc(C#N)cc3)CC2)cc1NC(=O)NC1(C)CCS(=O)(=O)C1` (centres unmarked) [Example 335, 1-[5-[4-(4-cyanophenyl)piperidine-1-carbonyl]-2-methyl-phenyl]-3-(3-methyl-1,1-dioxo-thiolan-3-yl)urea]: 78.2%.

The assay is the same for the next values; noted with them: FAS enzyme assay, IC50 from fitted sigmoid curves.
Turning to `Cc1ccc(C(=O)N2CCC(O)(c3cccc(C(F)(F)F)c3)CC2)cc1NC(=O)NC(C)C` [1-[5-[4-hydroxy-4-[3-(trifluoromethyl)phenyl]piperidine-1-carbonyl]-2-methylphenyl]-3-propan-2-ylurea], the “IC50, inhibition of human Fatty Acid Synthase” value is listed as “do not have IC50s in the range of about 0.001 μM to about 30 μM”.
For `COC(=O)[C@H](Cc1cn(C)cn1)NC(=O)Nc1cc(C(=O)N2CCC(c3ccc(C#N)cc3)CC2)ccc1C` [Methyl (2S)-2-[[5-[4-(4-cyanophenyl)piperidine-1-carbonyl]-2-methylphenyl]carbamoylamino]-3-(1-methylimidazol-4-yl)propanoate], the “IC50, inhibition of human Fatty Acid Synthase” value is reported as “do not have IC50s in the range of about 0.001 μM to about 30 μM”.
Still for that read-out and setting: with `Cc1ccc(C(=O)N2CCC(c3ccc(C#N)cc3)CC2)cc1NC(=O)N1CCS(=O)(=O)CC1` [N-[5-[4-(4-cyanophenyl)piperidine-1-carbonyl]-2-methylphenyl]-1,1-dioxo-1,4-thiazinane-4-carboxamide] the entry was “do not have IC50s in the range of about 0.001 μM to about 30 μM”.
